Source: US20250019385A1, “SPIROCYCLIC ANNULATED 2-AMINO-3-CYANO THIOPHENES AND DERIVATIVES FOR THE TREATMENT OF CANCER” (Boehringer Ingelheim International GmbH, priority 2023, published 2025)
pIC50: −log10 of the molar value.

Test system: not listed separately
Experiment: Metabolic (microsomal) stability assay, human liver microsomes (HLM)
Type: in vitro ADME
Conditions: 1 μM test compound, predicted clearance as percent of liver blood flow
Method: The metabolic degradation of the test compound is assayed at 37° C. with pooled liver microsomes (mouse (MLM), rat (RLM) or human (HLM)). The final incubation volume of 48 μL per time point contains TRIS buffer (pH 7.5; 0.1 M), magnesium chloride (6.5 mM), microsomal protein (0.5 mg/mL for mouse/rat, 1 mg/mL for human specimens) and the test compound at a final concentration of 1 μM. Following a short preincubation period at 37° C., the reactions are initiated by addition of 12 μL beta-nicotinamide adenine dinucleotide phosphate, reduced form (NADPH, 10 mM) and terminated by transferring an aliquot into solvent after different time points (0, 5, 15, 30, 60 min). Additionally, the NADPH-independent degradation is monitored in incubations without NADPH, terminated at the last time point by addition of acetonitrile. The quenched incubations are pelleted by centrifugation (4,000 rpm, 15 min). An aliquot of the supernatant is assayed by LC-MS/MS to quantify the concentration of parent compound in the individual samples.
In vitro intrinsic clearance (CLint,in vitro) is calculated from the time course of the disappearance of the test drug during the microsomal incubation. Each plot is fitted to the first-order elimination rate constant as C(t)=C0*exp(−ke*t), where C(t) and C0 are the concentration of unchanged test drug at incubation time t and that at preincubation and ke is the disappearance rate constant of the unchanged drug. Subsequently, CLint, in vitro (μL min^−1·amount protein) values are converted to predicted CLint,in vivo (mL min^−1·kg^−1) from incubation parameters according to the equation CLint, in vivo=CLint, in vitro×(incubation volume (mL)/amount protein (mg))×(amount protein (mg)/g liver tissue)×(liver weight/body wt.).
For better across species comparison the predicted clearance is expressed as percent of the liver blood flow [% QH] (mL min^−1·kg^−1) in the individual species. In general, high stability (corresponding to low % QH) of the compounds across species is desired.

With `COCCn1c(=O)n(C)c2c(O[C@@H](C)[C@@H]3CCCN3C)nc(-c3onc4c3CCC[C@@]43CCCc4sc(N)c(C#N)c43)nc21` [I-7] the “HLM QH” value was <24%.
With `C[C@H](Oc1nc(-c2onc3c2CCC[C@@]32CCCc3sc(N)c(C#N)c32)nc2c1n(C)c(=O)n2C1COC1)[C@@H]1CCCN1C` [I-24] the “HLM QH” value was <24%.
For `C[C@H](Oc1nc(-c2onc3c2CCC[C@@]32CCCc3sc(N)c(C#N)c32)nc2c1N(C)C(=O)CN2[C@@H]1CCOC1)[C@@H]1CCCN1C` [I-37], the “HLM QH” value was <24%.

In order of rising “HLM QH” value:
1. C[C@H](Oc1nc(-c2onc3c2CCC[C@@]32CCCc3sc(N)c(C#N)c32)nc2c1ncn2[C@@H]1CCOC1)[C@@H]1CCCN1C [I-38]  28%
2. CO[C@H]1C[C@@H]([C@H](C)Oc2nc(-c3onc4c3CCC[C@@]43CCCc4sc(N)c(C#N)c43)nc3c2n(C)c(=O)n3[C@@H]2CCOC2)N(C)C1 [I-2]  73%

Test system: AsPC-1 cells
Experiment: AsPC-1 CTG proliferation assay (120 h) (pancreatic cancer, G12D)
Type: cell-based
Conditions: Homo sapiens, ASPC1
Method: (§1) AsPC-1 cells (ATCC CRL-1682) are dispensed into black 384-well plates, flat and clear bottom (Greiner, PNr. 781091) at a density of 500 cells per well in 60 μl RPMI ATCC-Formulation (PAN P04-18047)+10% FCS (fetal calf serum, HyClone, SH30084.03). Cells are incubated overnight at 37° C. in a humidified tissue culture incubator at 5% CO2. Compounds (10 mM stock in DMSO) are added at logarithmic dose series using the ECHO acoustic liquid handler system (Beckman Coulter), normalizing for added DMSO and including DMSO controls. All compound treatments are performed in technical duplicates. For the TO time point measurement, untreated cells are analyzed at the time of compound addition. Plates are incubated for 120 h, and cell viability is measured using CellTiter-Glo luminescent cell viability reagent (Promega product code G7570). Viability (stated as percent of control) is defined as relative luminescence units RLU of each well divided by the RLU of cells in DMSO controls. IC50 values are determined from viability measurements by non-linear regression using a four-parameter model.
(§2) IC50 values of representative compounds according to the invention measured with these assays in the indicated cell lines are presented in Table 46.

In order of falling pIC50:
1. C[C@H](Oc1nc(-c2onc3c2CCC[C@@]32CCCc3sc(N)c(C#N)c32)nc2c1ncn2[C@@H]1CCOC1)[C@@H]1CCCN1C [I-38]  6.57
2. CO[C@H]1C[C@@H]([C@H](C)Oc2nc(-c3onc4c3CCC[C@@]43CCCc4sc(N)c(C#N)c43)nc3c2n(C)c(=O)n3[C@@H]2CCOC2)N(C)C1 [I-2]  5.71
3. C[C@H](Oc1nc(-c2onc3c2CCC[C@@]32CCCc3sc(N)c(C#N)c32)nc2c1n(C)c(=O)n2C1COC1)[C@@H]1CCCN1C [I-24]  5.56
4. C[C@H](Oc1nc(-c2onc3c2CCC[C@@]32CCCc3sc(N)c(C#N)c32)nc2c1N(C)C(=O)CN2[C@@H]1CCOC1)[C@@H]1CCCN1C [I-37]  5.38
5. COCCn1c(=O)n(C)c2c(O[C@@H](C)[C@@H]3CCCN3C)nc(-c3onc4c3CCC[C@@]43CCCc4sc(N)c(C#N)c43)nc21 [I-7]  5.32

Test system: SK-CO-1 cells
Experiment: SK-CO-1 CTG proliferation assay (120 h) (CRC, G12V)
Type: cell-based
Conditions: Homo sapiens
Method: as §1, with “SK—CO-1” for “AsPC-1”, “HTB-39)” for “CRL-1682)”, “EMEM (Sigma M5650)+10%” for “RPMI ATCC-Formulation (PAN P04-18047)+10%”
as §2

In order of falling pIC50:
1. C[C@H](Oc1nc(-c2onc3c2CCC[C@@]32CCCc3sc(N)c(C#N)c32)nc2c1ncn2[C@@H]1CCOC1)[C@@H]1CCCN1C [I-38]  7.49
2. CO[C@H]1C[C@@H]([C@H](C)Oc2nc(-c3onc4c3CCC[C@@]43CCCc4sc(N)c(C#N)c43)nc3c2n(C)c(=O)n3[C@@H]2CCOC2)N(C)C1 [I-2]  7.37
3. C[C@H](Oc1nc(-c2onc3c2CCC[C@@]32CCCc3sc(N)c(C#N)c32)nc2c1n(C)c(=O)n2C1COC1)[C@@H]1CCCN1C [I-24]  7.12
4. COCCn1c(=O)n(C)c2c(O[C@@H](C)[C@@H]3CCCN3C)nc(-c3onc4c3CCC[C@@]43CCCc4sc(N)c(C#N)c43)nc21 [I-7]  6.72
5. C[C@H](Oc1nc(-c2onc3c2CCC[C@@]32CCCc3sc(N)c(C#N)c32)nc2c1N(C)C(=O)CN2[C@@H]1CCOC1)[C@@H]1CCCN1C [I-37]  6.49

Test system: NCI-H358 cells
Experiment: NCI-H358 CTG proliferation assay (120 h) (NSCLC, G12C)
Type: cell-based
Conditions: Homo sapiens
Method: as §1, with “NCI-H358” for “AsPC-1”, “No. CRL-5807)” for “CRL-1682)”, “200” for “500”, “RPMI-1640” for “RPMI”, “(Gibco #A10491)+10%” for “(PAN P04-18047)+10%”, “serum).” for “serum, HyClone, SH30084.03).”
as §2

In order of falling pIC50:
1. C[C@H](Oc1nc(-c2onc3c2CCC[C@@]32CCCc3sc(N)c(C#N)c32)nc2c1ncn2[C@@H]1CCOC1)[C@@H]1CCCN1C [I-38]  8.05
2. CO[C@H]1C[C@@H]([C@H](C)Oc2nc(-c3onc4c3CCC[C@@]43CCCc4sc(N)c(C#N)c43)nc3c2n(C)c(=O)n3[C@@H]2CCOC2)N(C)C1 [I-2]  7.37
3. C[C@H](Oc1nc(-c2onc3c2CCC[C@@]32CCCc3sc(N)c(C#N)c32)nc2c1n(C)c(=O)n2C1COC1)[C@@H]1CCCN1C [I-24]  7.03
4. COCCn1c(=O)n(C)c2c(O[C@@H](C)[C@@H]3CCCN3C)nc(-c3onc4c3CCC[C@@]43CCCc4sc(N)c(C#N)c43)nc21 [I-7]  6.91
5. C[C@H](Oc1nc(-c2onc3c2CCC[C@@]32CCCc3sc(N)c(C#N)c32)nc2c1N(C)C(=O)CN2[C@@H]1CCOC1)[C@@H]1CCCN1C [I-37]  6.63

Test system: NCI-H727 cells
Experiment: NCI-H727 CTG proliferation assay (120 h) (lung cancer, G12V)
Type: cell-based
Conditions: Homo sapiens
Method: as §1, with “NCI-H727” for “AsPC-1”, “No. CRL-5815)” for “CRL-1682)”
as §2

In order of falling pIC50:
1. CO[C@H]1C[C@@H]([C@H](C)Oc2nc(-c3onc4c3CCC[C@@]43CCCc4sc(N)c(C#N)c43)nc3c2n(C)c(=O)n3[C@@H]2CCOC2)N(C)C1 [I-2]  7.85
2. C[C@H](Oc1nc(-c2onc3c2CCC[C@@]32CCCc3sc(N)c(C#N)c32)nc2c1ncn2[C@@H]1CCOC1)[C@@H]1CCCN1C [I-38]  7.47
3. C[C@H](Oc1nc(-c2onc3c2CCC[C@@]32CCCc3sc(N)c(C#N)c32)nc2c1n(C)c(=O)n2C1COC1)[C@@H]1CCCN1C [I-24]  7.46
4. C[C@H](Oc1nc(-c2onc3c2CCC[C@@]32CCCc3sc(N)c(C#N)c32)nc2c1N(C)C(=O)CN2[C@@H]1CCOC1)[C@@H]1CCCN1C [I-37]  6.74
5. COCCn1c(=O)n(C)c2c(O[C@@H](C)[C@@H]3CCCN3C)nc(-c3onc4c3CCC[C@@]43CCCc4sc(N)c(C#N)c43)nc21 [I-7]  6.46
